Source: EP0687258B1, “SUBSTITUTED IMINOACETONITRILES WITH MYOCARDIAL PROTECTIVE EFFECT” (HOECHST AKTIENGESELLSCHAFT, priority 1993, dated 1994)

Test system: isoliert perfundierten Rattenherzens
Assay: Isolated perfused rat heart (Langendorff), anoxia/reoxygenation, release of lactate dehydrogenase into the perfusate
Design: species or system Wistarratten
Conditions: for Freisetzung von Laktatdehydrogenase (großer initialer Enzymverlust) während der Reoxygenationsphase: closed circles, n = 4 hearts; for Enzymverlust nach anschließendem Auswaschen der Substanz: open circles
Method: Die pharmakologische Wirkung der erfindungsgemäßen Verbindungen der allgemeinen Formel I sowie des N-Morpholino-iminoacetonitrils wurden am Modell des isoliert perfundierten Rattenherzens untersucht.
Dazu wurden Herzen von 200 - 250 g schweren Wistarratten in einer temperaturkontrollierten Kammer (37°C) an ein Langendorff-Perfusionssystem gehängt. Die Kammer war während normoxischer Perfusionen mit Luft, während anoxischer mit 95 % N2 plus 5 % CO2 gefüllt. […] Für eine initiale Stabilisierungsperiode von 30 min wurden die Herzen mit einem oxygenierten salinen Medium perfundiert (Zusammensetzung in mM: 140.0 NaCl, 24.0 NaHCO3, 2.7 KCl, 0.4 NaH2PO4, 1.0 MgCl2, 1.8 CaCl2, 5.0 Glucose, äquilibriert mit 95 % O2 und 5 % CO2, pH 7.4). Für anoxische Perfusionen wurde diese initiale normoxische Stabilisierungsperiode gefolgt von 60 min Perfusion, mit einem Fluß von 5 ml/min von anoxoischem Medium (Zusammensetzung wie zuvor, aber ohne Glucose und äquilibriert mit 95 % N2 und 5 % CO2, pH 7.4). Die anoxisch perfundierten Herzen wurden nachfolgend durch Zurückschalten auf die initialen normoxischen Perfusionsbedingungen reoxygeniert.
In Versuchen mit den Testsubstanzen wurden diese dem anoxischen Perfusat während der letzten 15 min zugefügt. Die ersten 60 min der Reoxygenationsphase wurden ebenfalls in Gegenwart der Testsubstanzen durchgeführt. Danach wurde ohne diese Substanzen die normoxische Perfusion für weitere 45 min fortgesetzt.
Die Herzschädigung wurde charakterisiert durch die Freisetzung des zytosolischen Enzyms Laktatdehydrogenase (LDH) in das Perfusat. Während der Herzperfusion wurden 1-minütige Sammelproben des Effluats gesammelt. Die Aktivität von LDH wurde auch in Homogenaten ganzer Rattenherzen gemessen (präpariert in 100 mM Phosphatpuffer, pH 7.4, mit 1 % Triton X-100). […] Der Enzymverlust wurde in Prozenten der initialen Gesamtgewebsaktivitäten angegeben.

| Compound | Freisetzung von Laktatdehydrogenase (großer initialer Enzymverlust) während der Reoxygenationsphase (reoxygenation after 60 min anoxia in presence of 20 mM test substance, Abbildung 1 C) | Enzymverlust nach anschließendem Auswaschen der Substanz (washout after reoxygenation in presence of 20 mM test substance, Abbildung 1 C) | Wirksamkeit im Vergleich zu BDM (relative to BDM (10 mM vs 20 mM)) | Freisetzung von Laktatdehydrogenase (großer initialer Enzymverlust) während der Reoxygenationsphase (reoxygenation after 60 min anoxia in presence of 10 mM test substance, Abbildung 1 B) | reoxygenationsbedingte Myokardschädigung (summary of the results shown) | Enzymverlust nach anschließendem Auswaschen der Substanz (washout after reoxygenation in presence of 10 mM test substance, Abbildung 1 B) |
| --- | --- | --- | --- | --- | --- | --- |
| CC(=O)C(C)=NO [Butandionmonoxim, reference compound] | weitgehend unterdrückt | geringen initialen Steigerung des Enzymverlustes |  |  |  |  |
| N#CC=NN1CCOCC1 [N-Morpholino-iminoacetonitril] |  |  | etwa doppelt so hoch wie die von BDM | weitgehend unterdrückt | deutlich reduziert | keiner weiteren Steigerung des Enzymverlusts |
